The values below come from PMC4478171, “Synthesis, characterization, and preclinical validation of a PET radiopharmaceutical for interrogating Aβ (β-amyloid) plaques in Alzheimer’s disease” (EJNMMI Research, 2015).

The test system of data set [1] is Aβ plaques in autopsy-confirmed AD human tissues. Set-up: method as in PMID 25003699. Particulars: cited from earlier work.
Data set [2] has as its target cortical Aβ plaques in AD frontal cortex sections (Homo sapiens, UniProt P05067). Put plainly: Autoradiography on AD frontal cortex sections with IHC correlation. In kind it is binding. Particulars: 7A […] with 18F-7B 10 nM. As to the method: Frozen AD frontal cortex sections (12 μm) were obtained using a TBS Minotome PLUS Cryostat. The tissue sections were thaw-mounted onto Superfrost Plus (Fisherbrand 12-550-15 (Fisherbrand, Leicestershire, UK)) microscope slides, allowed to air dry for 10 to 15 min, and stored at −80°C. For autoradiography, brain sections were brought to room temperature for 5 min and then pre-incubated in assay buffer (30 mM Tris-HCl, pH 7.4 + 0.1% BSA) for 10 min at RT. Sections were incubated with ^18F-7B (300 μL/slide; 10 nM) in the assay buffer for 60 min at room temperature. For determining nonspecific binding, adjacent sections were incubated in the additional presence of 2.5 μM cold ligand 7A. Sections were then washed at RT for 1 min in 30 mM Tris-HCl pH 7.4, 2 min in 70% ethanol/30 mM Tris-HCl, 1 min in 30% ethanol/30 mM Tris-HCl, and 1 min in 30 mM Tris-HCl (washing protocol using literature precedents. Sections were then dried and exposed to phosphor-imaging screen (BAS-MS 2025) for 30 min. Autoradiography images were obtained on a Fuji Bio-Imaging System FLA-7000 (Tokyo, Japan) and analyzed using MultiGauge software (Fuji, Tokyo, Japan). Following exposure to a phosphor-imaging screen, the sections were then blocked for 60 min at room temperature with 3% milk-0.25% Tween 20-PBS buffer. […]

In another data set the test system is Aβ plaques. Also on record: method as in PMID 25003699. Particulars: transgenic mice; cited from earlier work.
A further data set addresses AD homogenates (Homo sapiens, UniProt P05067). To be noted: cited from earlier work.
For data set [3] the following is noted: normal mice, cited from earlier work.
The conditions of data set [4]: comparison values, no reference given; cited from earlier work.

Molecules are shown by their SMILES. Entries after “also recorded” stand apart in the source; their conditions may differ. Where two headings read alike, the source gives them in different places.

Chain of AD homogenates (P05067 672-711 limits assumed): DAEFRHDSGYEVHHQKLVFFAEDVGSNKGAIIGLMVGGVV
Chain of cortical Aβ plaques in AD frontal cortex sections (P05067 672-711 limits assumed): as above

Take `CN(C)c1ccc(/C=C/c2nc3ccc(OCCF)cc3s2)cn1` [7A, (E)-5-(2-(6-(2-fluoroethoxy)benzo[d]thiazol-2-yl)vinyl)-N,N-dimethylpyridin-2-amine]: the plaque types labeled result in data set [1] is “labels diffuse plaques in autopsy-confirmed AD human tissues; also recorded: binding to both diffuse and fibrillary plaques”. In addition, in data set [2], the “inhibition of 18F-7B binding in autoradiography” value is listed as “binding was inhibited”. The “BBB penetration and plaque labeling by multiphoton imaging” value with Aβ plaques was “could traverse the BBB to label parenchymal plaques in the brain of transgenic mice”.
As for `CNc1ccc(/C=C/c2ccc(OCCOCCOCCF)cc2)cc1` [Florbetaben], at AD homogenates, the BP is 152, the Bmax is 2,431 nM and the Kd was 16 nM.
On to `CNc1ccc(/C=C/c2ccc(OCCOCCOCCF)nc2)cc1` [Florbetapir, (E)-4-(2-(6-(2-(2-(2-^18F-fluoroethoxy)ethoxy)-ethoxy)pyridin-3-yl)vinyl)-N-methyl benzenamine], for which the Brain uptake in data set [3] (2 min) is on record as 7.33 ± 1.54 %ID/g; in data set [3] (2 h) it was 1.80 ± 0.07 %ID/g. For the same molecule, the “brain uptake ratio 2 min/2 h” value in data set [3] is listed as 4.07. Also, the “log P” value in data set [4] is reported as 2.4.

The Kd is the free concentration of one partner at which half of the binding sites on the other are occupied at equilibrium, for simple one-to-one binding. What is called log P is a log measure of how a compound divides between an organic and an aqueous phase.
